This is an account of results in patent US10954214B2 (Janssen Pharmaceutica NV, priority 2016, dated 2021).

One may read the IC50 as the concentration at which inhibition is half-maximal.

Assay [1] concerns IL10 secretion by OCI-LY3 ABC-DLBCL cells. Description: Human IL10 Mesoscale assay (OCI-LY3). The assay is classed as cell-based. As to conditions: Homo sapiens, 24 h. Summed up: (§1)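 Read-out: MSD electrochemiluminescence of IL6/IL10 in supernatants. Cells (100,000/well, no beta-mercaptoethanol) were exposed to compounds at 15 μM down to 58.6 nM, 1:2 dilutions, for 24 h at 37° C, 5% CO2. Normalised between DMSO (high) and RN486 (low) controls.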

Assay [2] deals with IL6 secretion by OCI-LY3 ABC-DLBCL cells. Description: Human IL6 Mesoscale assay (OCI-LY3). It counts as cell-based. As to conditions: Homo sapiens, 24 h. Summed up:
as §1

Assay [3] has as its target full-length MALT1 protein (Strep-MALT1(1-824)-His) (Homo sapiens (Human), UniProt Q9UDY8). The assay is described as follows: MALT1 Biochemical Protease Assay (Ac-LRSR-AMC substrate). As to conditions: 10 nM FL MALT1, 200 μM Ac-LRSR-AMC, 4 h at RT; read-out: MALT1_Biochemical activity (Ac-LRSR-amc) IC50. Summed up:
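Fluorescence from AMC release off the quenched LRSR substrate was read after a 4 h reaction at RT. Values were normalised to no-enzyme and uninhibited controls and fitted for IC50 and Hill coefficient.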

Chain of full-length MALT1 protein (Strep-MALT1(1-824)-His) (Q9UDY8 whole entry): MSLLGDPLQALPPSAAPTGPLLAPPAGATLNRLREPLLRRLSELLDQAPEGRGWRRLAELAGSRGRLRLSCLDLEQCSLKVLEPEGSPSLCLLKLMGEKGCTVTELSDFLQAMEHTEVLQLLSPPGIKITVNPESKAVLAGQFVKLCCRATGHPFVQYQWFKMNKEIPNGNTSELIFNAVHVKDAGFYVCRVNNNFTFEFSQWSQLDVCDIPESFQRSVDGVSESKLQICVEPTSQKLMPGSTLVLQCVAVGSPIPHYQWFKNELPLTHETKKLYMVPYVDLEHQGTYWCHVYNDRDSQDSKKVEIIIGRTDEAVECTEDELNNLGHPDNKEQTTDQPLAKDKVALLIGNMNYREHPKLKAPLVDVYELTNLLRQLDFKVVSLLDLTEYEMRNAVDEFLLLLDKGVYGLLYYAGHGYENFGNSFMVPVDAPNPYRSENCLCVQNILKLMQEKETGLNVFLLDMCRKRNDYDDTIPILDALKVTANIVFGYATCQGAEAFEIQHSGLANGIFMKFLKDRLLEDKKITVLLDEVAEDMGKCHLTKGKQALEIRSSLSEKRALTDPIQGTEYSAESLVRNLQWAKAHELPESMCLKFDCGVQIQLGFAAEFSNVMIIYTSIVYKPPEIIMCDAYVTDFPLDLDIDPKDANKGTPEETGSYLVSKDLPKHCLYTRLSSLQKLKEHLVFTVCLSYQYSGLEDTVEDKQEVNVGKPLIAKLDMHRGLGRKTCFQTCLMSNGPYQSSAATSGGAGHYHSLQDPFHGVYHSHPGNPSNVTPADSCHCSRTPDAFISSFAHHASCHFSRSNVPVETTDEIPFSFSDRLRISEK

As to `Nc1ccc2c(-n3ncc(C(=O)Nc4cnc(-n5nccn5)c(Cl)c4)c3C(F)(F)F)cccc2n1` [Cpd 331, 1-(2-aminoquinolin-5-yl)-N-(5-chloro-6-(2H-1,2,3-triazol-2-yl)pyridin-3-yl)-5-(trifluoromethyl)-1H-pyrazole-4-carboxamide], the 50% inhibitory concentration (IC50) in assay [1] came out at 339 nM; in assay [2], 309 nM; in assay [3], 501 nM.
For `N#Cc1cc(NC(=O)c2cnn(-c3cccc4nc(N)ccc34)c2C(F)(F)F)cnc1-n1nccn1` [Cpd 332, 1-(2-aminoquinolin-5-yl)-N-(5-cyano-6-(2H-1,2,3-triazol-2-yl)pyridin-3-yl)-5-(trifluoromethyl)-1H-pyrazole-4-carboxamide] the same measures were 44 nM, 48 nM and 417 nM.
For `Cc1nc(-c2ccn(C)n2)c(Cl)cc1NC(=O)c1cnn(-c2cnc(N)c3ccccc23)c1C(F)(F)F` [Cpd 333, 1-(1-aminoisoquinolin-4-yl)-N-(5-chloro-2-methyl-6-(1-methyl-1H-pyrazol-3-yl)pyridin-3-yl)-5-(trifluoromethyl)-1H-pyrazole-4-carboxamide] the same measures were 123 nM, 155 nM and 245 nM.
Turning to `Cc1cc(NC(=O)c2cnn(-c3cnc(N)c4ccccc34)c2C(F)(F)F)c(C)nc1-n1nccn1` [Cpd 334, 1-(1-aminoisoquinolin-4-yl)-N-(2,5-dimethyl-6-(2H-1,2,3-triazol-2-yl)pyridin-3-yl)-5-(trifluoromethyl)-1H-pyrazole-4-carboxamide], the IC50 in assay [1] was found to be 251 nM; in assay [2], 186 nM; in assay [3], 417 nM.
With `Cc1cc(-n2nccn2)c(Cl)cc1NC(=O)c1cnn(-c2cnc(N)c3ccccc23)c1C(F)(F)F` [Cpd 335, 1-(1-aminoisoquinolin-4-yl)-N-(5-chloro-2-methyl-4-(2H-1,2,3-triazol-2-yl)phenyl)-5-(trifluoromethyl)-1H-pyrazole-4-carboxamide], the 50% inhibitory concentration (IC50) in assay [1] came to 60 nM; in assay [2] it was 132 nM; in assay [3], 174 nM.
Regarding `Cc1nc(-n2cccn2)c(Cl)cc1NC(=O)c1cnn(-c2cnc(N)c3ccccc23)c1C(F)(F)F` [Cpd 336, 1-(1-aminoisoquinolin-4-yl)-N-(5-chloro-2-methyl-6-(1H-pyrazol-1-yl)pyridin-3-yl)-5-(trifluoromethyl)-1H-pyrazole-4-carboxamide], the concentration for half-maximal inhibition (IC50) came out at 117 nM in assay [1], 209 nM in assay [2] and 214 nM in assay [3].
The corresponding values for `Cc1cc(-n2nccn2)c(C#N)cc1NC(=O)c1cnn(-c2cnc(N)c3ccccc23)c1C(F)(F)F` [Cpd 337, 1-(1-aminoisoquinolin-4-yl)-N-(5-cyano-2-methyl-4-(2H-1,2,3-triazol-2-yl)phenyl)-5-(trifluoromethyl)-1H-pyrazole-4-carboxamide] are 182 nM, 209 nM and 141 nM.
For `Nc1ncc(-n2ncc(C(=O)Nc3ccnc(C(F)(F)F)c3)c2C(F)(F)F)c2ccccc12` [Cpd 339, 1-(1-aminoisoquinolin-4-yl)-5-(trifluoromethyl)-N-(2-(trifluoromethyl)pyridin-4-yl)-1H-pyrazole-4-carboxamide] the same measures were 87 nM, 107 nM and 117 nM.
The corresponding values for `N#Cc1cc(NC(=O)c2cnn(-c3cnc(N)c4ccccc34)c2C(F)(F)F)ccn1` [Cpd 340, 1-(1-aminoisoquinolin-4-yl)-N-(2-cyanopyridin-4-yl)-5-(trifluoromethyl)-1H-pyrazole-4-carboxamide] are 229 nM, 295 nM and 209 nM.
Turning to `Cc1cnn(-c2nc(C)c(NC(=O)c3cnn(-c4cnc(N)c5ccccc45)c3C(F)(F)F)cc2Cl)n1` [Cpd 341, 1-(1-aminoisoquinolin-4-yl)-N-(5-chloro-2-methyl-6-(4-methyl-2H-1,2,3-triazol-2-yl)pyridin-3-yl)-5-(trifluoromethyl)-1H-pyrazole-4-carboxamide], the IC50 was found to be 389 nM in assay [1], 479 nM in assay [2] and 25 nM in assay [3].
For `Nc1ncc(-n2ncc(C(=O)Nc3cncc(C(F)(F)F)c3)c2C(F)(F)F)c2ccccc12` [Cpd 342, 1-(1-aminoisoquinolin-4-yl)-5-(trifluoromethyl)-N-(5-(trifluoromethyl)pyridin-3-yl)-1H-pyrazole-4-carboxamide] the same measures were 132 nM, 162 nM and 115 nM.
For the molecule `Cc1nc(-n2nccn2)c(Br)cc1NC(=O)c1cnn(-c2cnc(N)c3ccccc23)c1C(F)(F)F` [Cpd 343, 1-(1-aminoisoquinolin-4-yl)-N-(5-bromo-2-methyl-6-(2H-1,2,3-triazol-2-yl)pyridin-3-yl)-5-(trifluoromethyl)-1H-pyrazole-4-carboxamide], the IC50 in assay [1] is 37 nM; in assay [2], 69 nM; in assay [3], 20 nM.
For `O=C(Nc1cnc(-n2nccn2)c(Cl)c1)c1cnn(-c2cccc3[nH]c(=O)ccc23)c1C(F)(F)F` [Cpd 344, N-(5-chloro-6-(2H-1,2,3-triazol-2-yl)pyridin-3-yl)-1-(2-oxo-1,2-dihydroquinolin-5-yl)-5-(trifluoromethyl)-1H-pyrazole-4-carboxamide] the same measures were 52 nM, 52 nM and 1230 nM.
For `COc1ncc(NC(=O)c2cnn(-c3cccc4c(=O)[nH]ccc34)c2C(F)(F)F)cc1Cl` [Cpd 345, N-(5-chloro-6-methoxypyridin-3-yl)-1-(1-oxo-1,2-dihydroisoquinolin-5-yl)-5-(trifluoromethyl)-1H-pyrazole-4-carboxamide] the same measures were 58 nM, 79 nM and 93 nM.
`N#Cc1cncc(NC(=O)c2cnn(-c3cccc4c(=O)[nH]ccc34)c2C(F)(F)F)c1` [Cpd 346, N-(5-cyanopyridin-3-yl)-1-(1-oxo-1,2-dihydroisoquinolin-5-yl)-5-(trifluoromethyl)-1H-pyrazole-4-carboxamide]: the results for the concentration for half-maximal inhibition (IC50) in assay [1], in assay [2] and in assay [3] were 224 nM, 457 nM and 275 nM, respectively.
The corresponding values for `Cc1cc(NC(=O)c2cnn(-c3cccc4c(=O)[nH]ccc34)c2C(F)(F)F)ccn1` [Cpd 347, N-(2-methylpyridin-4-yl)-1-(1-oxo-1,2-dihydroisoquinolin-5-yl)-5-(trifluoromethyl)-1H-pyrazole-4-carboxamide] are 31 nM, 43 nM and 933 nM.
For `Cc1ncc(NC(=O)c2cnn(-c3cccc4c(=O)[nH]ccc34)c2C(F)(F)F)cc1C(F)(F)F` [Cpd 348, N-(6-methyl-5-(trifluoromethyl)pyridin-3-yl)-1-(1-oxo-1,2-dihydroisoquinolin-5-yl)-5-(trifluoromethyl)-1H-pyrazole-4-carboxamide] the same measures were 68 nM, 100 nM and 195 nM.
On to `O=C(Nc1ccncc1)c1cnn(-c2cccc3c(=O)[nH]ccc23)c1C(F)(F)F` [Cpd 349, 1-(1-oxo-1,2-dihydroisoquinolin-5-yl)-N-(pyridin-4-yl)-5-(trifluoromethyl)-1H-pyrazole-4-carboxamide], for which the figures for the IC50 in assay [1], in assay [2] and in assay [3] were 60 nM, 79 nM and 13500 nM, respectively.
Consider `O=C(Nc1ccnc(C2CC2)c1)c1cnn(-c2cccc3c(=O)[nH]ccc23)c1C(F)(F)F` [Cpd 350, N-(2-cyclopropylpyridin-4-yl)-1-(1-oxo-1,2-dihydroisoquinolin-5-yl)-5-(trifluoromethyl)-1H-pyrazole-4-carboxamide], for which the IC50 in assay [1] was 182 nM; in assay [2], 204 nM; in assay [3], 1260 nM.
Turning to `CN(C)C(=O)c1ncc(NC(=O)c2cnn(-c3cccc4c(=O)[nH]ccc34)c2C(F)(F)F)cc1Cl` [Cpd 351, 3-chloro-N,N-dimethyl-5-(1-(1-oxo-1,2-dihydroisoquinolin-5-yl)-5-(trifluoromethyl)-1H-pyrazole-4-carboxamido)picolinamide], the results for the half-inhibitory concentration (IC50) in assay [1], in assay [2] and in assay [3] were 46 nM, 78 nM and 68 nM, respectively.
As for `CNC(=O)c1ncc(NC(=O)c2cnn(-c3cccc4c(=O)[nH]ccc34)c2C(F)(F)F)cc1Cl` [Cpd 352, 3-chloro-N-methyl-5-(1-(1-oxo-1,2-dihydroisoquinolin-5-yl)-5-(trifluoromethyl)-1H-pyrazole-4-carboxamido)picolinamide], the half-maximal inhibitory concentration (IC50) amounted to 87 nM in assay [1], 129 nM in assay [2] and 44 nM in assay [3].
As for `O=C(Nc1cncc(Cl)c1)c1cnn(-c2cccc3c(=O)[nH]ccc23)c1C(F)(F)F` [Cpd 353, N-(5-chloropyridin-3-yl)-1-(1-oxo-1,2-dihydroisoquinolin-5-yl)-5-(trifluoromethyl)-1H-pyrazole-4-carboxamide], the results for the 50% inhibitory concentration (IC50) in assay [1], in assay [2] and in assay [3] were 537 nM, 692 nM and 115 nM, respectively.
For `N#Cc1ncc(NC(=O)c2cnn(-c3cccc4c(=O)[nH]ccc34)c2C(F)(F)F)cc1C(F)(F)F` [Cpd 354, N-(6-cyano-5-(trifluoromethyl)pyridin-3-yl)-1-(1-oxo-1,2-dihydroisoquinolin-5-yl)-5-(trifluoromethyl)-1H-pyrazole-4-carboxamide] the same measures were 437 nM, 457 nM and 52 nM.
